Columns and labels:
[1] = target: T1, Mhp-LplJ (lipoate-protein ligase, MHP_RS00640) (Mesomycoplasma hyopneumoniae, UniProt E4QSS7); test: SPR (Biacore 8K), single-site affinity fit; also inhibits PdhD lipoylation in vitro at […]; type: binding
T1 construct: gene lplA; hexa-histidine-tagged Mhp-LplJ (pET22b)
T1 sequence (E4QSS7 1-336): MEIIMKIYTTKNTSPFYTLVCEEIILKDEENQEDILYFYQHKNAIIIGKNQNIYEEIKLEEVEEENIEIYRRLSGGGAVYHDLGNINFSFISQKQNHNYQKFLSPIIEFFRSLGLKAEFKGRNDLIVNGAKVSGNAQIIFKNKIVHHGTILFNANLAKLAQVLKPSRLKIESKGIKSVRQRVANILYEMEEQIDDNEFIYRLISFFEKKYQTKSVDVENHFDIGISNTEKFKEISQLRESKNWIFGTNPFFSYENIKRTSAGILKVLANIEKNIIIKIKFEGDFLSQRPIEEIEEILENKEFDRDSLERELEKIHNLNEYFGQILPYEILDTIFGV

[2] = target: T1, Mhp-LplJ (lipoate-protein ligase, MHP_RS00640); test: SPR (Biacore 8K, CM5, immobilized Mhp-LplJ), single-site kinetics fit; type: binding
[3] = target: T2, E. coli LplA (lipoate-protein ligase A) (Escherichia coli, UniProt P32099); test: in vitro lipoate ligation to apo-PdhD, anti-lipoic acid western blot (positive control enzyme); type: biochemical
T2 construct: hexa-histidine-tagged E. coli LplA (pET32a)
T2 sequence (P32099 2-338): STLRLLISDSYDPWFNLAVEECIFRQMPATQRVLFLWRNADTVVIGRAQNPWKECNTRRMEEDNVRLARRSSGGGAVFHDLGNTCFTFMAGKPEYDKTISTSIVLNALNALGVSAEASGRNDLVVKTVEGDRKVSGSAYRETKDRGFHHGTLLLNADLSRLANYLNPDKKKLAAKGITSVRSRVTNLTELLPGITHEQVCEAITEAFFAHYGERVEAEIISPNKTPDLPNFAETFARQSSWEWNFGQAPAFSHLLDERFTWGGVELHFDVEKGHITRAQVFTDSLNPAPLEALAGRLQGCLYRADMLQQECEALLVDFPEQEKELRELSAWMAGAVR

[4] = target: T1, Mhp-LplJ (lipoate-protein ligase, MHP_RS00640); test: in vitro octanoate ligation to apo-PdhD, gel shift assay; type: biochemical

**Q.** With `O=C(O)CCCCCCCBr` [8-BrO, 8-bromooctanoic acid] as the compound, how does the Kd [1] read?
**A.** 29.8 ± 3.62 µM

**Q.** For `O=C(O)CCCC[C@@H]1CCSS1` [lipoic acid, (R)-5-(1,2-dithiolane-3-yl) pentanoic acid], which Kd [2] is on record?
**A.** 24.1 ± 1.61 µM

**Q.** What about the “in vitro lipoate ligation to apo-PdhD, anti-lipoic acid western blot (positive c)” value [3] of the same compound?
**A.** PdhD was successfully modified by E. coli LplA in vitro in the presence of lipoic acid

**Q.** For `CCCCCCCC(=O)O` [octanoic acid], which “in vitro octanoate ligation to apo-PdhD, gel shift assay” value [4] is on record?
**A.** Mhp-LplJ could able to catalyze the attachment of free octanoic acid to PdhD

Source: PMC7873978, “A Novel Lipoate-Protein Ligase, Mhp-LplJ, Is Required for Lipoic Acid Metabolism in Mycoplasma hyopneumoniae” (Frontiers in Microbiology, 2021)
